In US12721832B2, “Anti-senescence plant polyphenol drug downregulating senescence-related secretory phenotype and use thereof” (BYHEALTH CO., LTD., priority 2021, dated 2026):

Legend:
[1] = tested on: PC3/PSC27 xenograft tumors; experiment: PC3/PSC27 xenograft tumor terminal volume in NOD/SCID mice; type: in vivo; settings: for tumor volume, drug administered together with PCC1: chemotherapeutic drug combined with PCC1, end of 8th week; for tumor volume, drug used alone: chemotherapeutic drug alone
From the text: Every two weeks was a dosing cycle, and MIT (mitoxantrone) was intraperitoneally administered to the mice on the first day of the 3rd/5th/7th weeks. From the first day of the 5th week, the mice were intraperitoneally administrated with PCC1, once a week. After the 8-week course of treatment, the mice were dissected for pathological identification and expression analysis.
Chemotherapeutic drug MIT alone or together with anti-senescence drug PCC1 was used to administer mice, and after the 8th week, the tumor size of each group was compared and analyzed.
All experimental mouse experiments were carried out in strict accordance with the relevant regulations of the Institutional Animal Care and Use Committee (IACUC), Shanghai Institutes for Biological Sciences, Chinese Academy of Sciences. Immunodeficient mice (NOD-SCID mice, ICR) (body weight about 25 g) aged 6-8 weeks were used for animal experiments related to the present patent. Stromal cells PSC27 and epithelial cells PC3 were mixed at a predetermined ratio of 1:4, and each graft contained 1.25×10^6 cells for tissue remodeling. The xenograft tumors were implanted into mice by subcutaneous transplantation, and the animals were euthanized 8 weeks after the end of the transplantation surgery. Tumor volume was calculated according to the following formula: V=(π/6)×[…] (V, volume; l, length; w, width).
(§1) In a preclinical treatment trial, subcutaneously transplanted mice were fed with a standard experimental diet, after 2 weeks chemotherapy drugs mitoxantrone (MIT, dose: 0.2 mg/kg) and/or procyanidin C1 (PCC1) (500 μl, dose: 10 mg/kg) via intraperitoneal administration. The time points were: the former was administrated on the first day of the 3rd, 5th and 7th weeks, and the latter was administrated on the first day of the 5th and 7th weeks. A total of 3 cycles of MIT administration were carried out throughout the course of treatment, and each cycle lasted for 2 weeks. After the course of treatment, mouse tumors were harvested for volume measurement and histological analysis. Each mouse cumulatively received 0.6 mg/kg body weight of MIT and […] body weight of PCC1. In order to cause systemic expression of SASP factor induced by chemotherapy, MIT was administered to mice through […] according to the above steps and sequence, but the dose was reduced to 0.1 mg/kg body weight/each time (the cumulative dose of MIT received in the whole course of treatment was 0.3 mg/kg body weight) to reduce drug-related toxicity. The chemotherapy experiment ended at the end of the 8th week, and the mice were dissected immediately after sacrifice, and the xenograft tumors were collected and used for pathological system analysis.

[2] = tested on: PSC27 cells; experiment: Bleomycin-induced senescence of PSC27 stromal cells (SA-β-Gal, BrdU, DDR foci staining); type: cell-based, human
Protocol: The primary normal human prostate stromal cell line PSC27 (obtained from Fred Hutchinson Cancer Research Center, USA) was cultured in an incubator at 37° C. and 5% CO2, and proliferated and passaged in PSCC complete culture medium.
To cause cell damage, 50 μg/mL bleomycin (BLEO) was added to the culture medium when PSC27 cells grew to 80% (abbreviated as […]). After 12 hours of drug treatment, the cells were simply washed 3 times with PBS, left in the culture medium for 7-10 days, and then the subsequent experiments were performed.
For immunofluorescent staining, target cells were preseeded on coverslips for at least 24 h after culture in dishes. After a brief wash, the cells were fixed with 4% paraformaldehyde in PBS for 8 min and blocked with 5% normal goat serum (NGS, Thermo Fisher) for 30 min. Mouse monoclonal antibody-anti-phospho-Histone H2A.X (Ser139) (clone JBW301, Millipore) and mouse monoclonal antibody-anti-BrdU (Cat# 347580, BD Biosciences), and secondary antibody Alexa Fluor® 488 (or 594)-Eurolink's F(ab')2 were sequentially added to the slides coated with the fixed cells. Nuclei were counterstained with 2 μg/m DAPI. The most representative image was selected from the three observation fields for data analysis and result display. FV1000 laser scanning confocal microscope (Olympus) was used to acquire confocal fluorescence images of cells.
Senescence-associated (3-galactosidase (SA-β-Gal) staining was performed following a previously reported procedure (Debacq-Chainiaux et al., 2009). Briefly, cells in culture dishes were washed with PBS and fixed at room temperature. Cells were fixed in 2% formaldehyde and 0.2% glutaraldehyde for 3 minutes. SA-β-Gal was used for staining with freshly prepared staining solution overnight at 37° C. Images were taken on the next day and the percentage of positive cells per unit area was calculated.

[3] = tested on: HUVECs; settings: cited from earlier work
[4] = tested on: senescent human preadipocytes; settings: cited from earlier work
[5] = tested on: IMR90 fetal lung fibroblast-like cell lines; settings: culture-adapted; cited from earlier work
[6] = tested on: senescent primary human lung fibroblasts; settings: cited from earlier work
[7] = tested on: senescent cells in tumor tissue; experiment: SA-β-Gal staining of tumor tissue in PC3/PSC27 tumor-bearing mice; type: in vivo; settings: MIT alone
Protocol: Representative pictures after SA-β-Gal staining. Scale bar, 100 μm.
A P>0.05; **, P<0.01; ***, P<0.001.
as §1, with “The chemotherapy experiment ended at the end of the 8th week, and the mice were dissected immediately after sacrifice, and the xenograft tumors were collected and used for pathological system analysis.” left out

[8] = tested on: SASP factors; experiment: LCM and qRT-PCR of SASP factors in mouse lesions; type: in vivo, mice; settings: MIT, mainly in stromal cells
Protocol: The stromal cells and cancer cells were specifically separated by LCM technology, total RNA was prepared and used for SASP expression detection. A P>0.05; *, P<0.05; **, P<0.01; ***, P<0.001.
as §1, with “The chemotherapy experiment ended at the end of the 8th week, and the mice were dissected immediately after sacrifice, and the xenograft tumors were collected and used for pathological system analysis.” left out

[9] = tested on: cancer cells in the lesion; experiment: DNA damage and apoptosis in tumor lesions (LCM, caspase 3 cleavage IHC); type: in vivo, mice; settings: single agent vs placebo, 7 days after first PCC1 administration
From the text: The signals of Caspase 3 cleaved […] in the lesion of each group of mice were in sharp contrast. Scale bar, 200 μm.
To investigate mechanisms directly supporting this senescence-associated pattern with expression and reversal of SASP in MIT-administered mice, we dissected tumors in animals treated with both drugs 7 days after the first PCC1 administration, and the time point of 7 days after administration was selected mainly because drug-resistant clones had not yet formed in cancer cells in the lesion at this time. […] As supporting evidence, when PCC1 was applied during treatment, caspase 3 cleavage activity was increased, which was a typical hallmark of apoptosis (FIG. 29).

[10] = tested on: senescent PSC27 cells; experiment: Caspase 3/7 activity / drug-induced apoptosis in senescent cells; type: cell-based, human; settings: QVD-OPh, 50 μM PCC1
Protocol: PSC27 cells gradually entered the senescent stage after being treated with BLEO for 12 hours under culture conditions. 50 μM PCC1 was added to the medium of senescent cells starting from day 7, NucLight Rapid Red reagent was used to label the cells, and caspase 3/7 reagent (IncuCyte) was used for apoptosis detection. Caspase 3/7 activity was detected every 4 hours (n=3).
Statistical differences are obtained by two-way ANOVA (Turkey' test).
PSC27 cells were plated in a 96-well dish, and the cells were induced to senescence under the treatment of 50 μg/mL BLEO. PCC1 and ABT263 were added at concentrations of 50 μM and 1.0 μM, respectively. Cell culture medium was supplemented with Incucyte Nuclight fast Red Reagent (Essen Bioscience) and Incucyte C-3/7 Apoptosis Reagent (Essen Bioscience). Representative field of view was selected to take pictures.

Molecule: COc1cccc2c1C(=O)c1c(O)c3c(c(O)c1C2=O)C[C@@](O)(C(=O)CO)C[C@@H]3O[C@H]1C[C@H](N)[C@H](O)[C@H](C)O1 [DOX, doxorubicin]
- tumor volume, drug administered together with PCC1 [1]: could roughly repeat the significant effect

Molecule: bleomycin
- positive rate of SA-β-Gal staining ([2]; PSC27, 50 μg/mL BLEO 12 h, 7-10 days later, vs CTRL): significant increase
- BrdU incorporation rate ([2]; PSC27, BLEO treated vs CTRL): greatly reduced
- DNA damage repair foci (DDR foci) ([2]; PSC27, BLEO treated vs CTRL): significantly increased

Molecule: CC(=O)O[C@@]12CO[C@@H]1C[C@H](O)[C@@]1(C)C(=O)[C@H](O)C3=C(C)[C@@H](OC(=O)[C@H](O)[C@@H](NC(=O)OC(C)(C)C)c4ccccc4)C[C@@](O)([C@@H](OC(=O)c4ccccc4)[C@H]21)C3(C)C [DOC, docetaxel]
- tumor volume, drug used alone ([1]; end of 8th week): could reduce the tumor volume
- tumor volume, drug administered together with PCC1 [1]: no further tumor shrinkage

Molecule: CC1(C)CCC(c2ccc(Cl)cc2)=C(CN2CCN(c3ccc(C(=O)NS(=O)(=O)c4ccc(N[C@H](CCN5CCOCC5)CSc5ccccc5)c(S(=O)(=O)C(F)(F)F)c4)cc3)CC2)C1 [Navitoclax]
- ability to target senescent cells [3]: able to target
- ability to target senescent cells [4]: not
- ability to target senescent cells [5]: can target and kill senescent cells
- ability to target senescent cells [6]: less effective

Molecule: CC[C@]1(O)C[C@H]2CN(CCc3c([nH]c4ccccc34)[C@@](C(=O)OC)(c3cc4c(cc3OC)N(C=O)[C@H]3[C@@](O)(C(=O)OC)[C@H](OC(C)=O)[C@]5(CC)C=CCN6CC[C@]43[C@@H]65)C2)C1 [VIN, vincristine]
- tumor volume, drug used alone ([1]; end of 8th week): could reduce the tumor volume
- tumor volume, drug administered together with PCC1 [1]: no further tumor shrinkage

Molecule: O=C1c2c(O)ccc(O)c2C(=O)c2c(NCCNCCO)ccc(NCCNCCO)c21 [MIT, mitoxantrone, reference compound]
- reduction in tumor size compared to placebo ([1]; single agent, i.p., end of 8th week): 44.0%
- senescent cells in tumor tissue [7]: induced the appearance of a large number of senescent cells
- expression of SASP factors (IL6, CXCL8, SPINK1, WNT16B, GM-CSF, MMP3, IL1α) and p16INK4A in lesions [8]: significantly elevated
- degree of DNA damage and apoptosis [9]: significant increase

Molecule: CC(C)[C@H](NC(=O)c1ccc2ccccc2n1)C(=O)N[C@@H](CC(=O)O)C(=O)COc1c(F)cccc1F [QVD, reference compound]
- effect of pan-caspase inhibitor on senolytic activity of PCC1 [10]: could prevent the killing of senescent cells by PCC1
